Data on eight molecules can be found in patent US11629192B2, “Methods and pharmaceutical compositions for the treatment of diseases mediated by the NRP-1/OBR complex signaling pathway” (INSERM (Institut National de la Sante et de la Recherche …, priority 2014, dated 2023).

In assay [1] the test system is NRP-1/OBR complex. The experiment in a line: NRP-1/OBR complex detection by Duolink Proximity Ligation Assay in MDA-MB-231 cells. In kind it is cell-based, human. The following applies: for formation and nuclear translocation of the NRP-1/OBR complex: MDA-MB-231 stimulated with Leptin (10 nM), CK2 inhibitor treatment. The source says:
FIG. 2A-E. NRP-1/OBR complex is dependent of the activity of Protein-kinase CK2: NRP-1 and OBR are both a substrate of the holoenzyme CK2: In vitro phosphorylation of the recombinant full length NRP-1 (A) and the length OBR (B) indicate that the CK2β subunit is indispensable for the CK2 activity. C. Detection of the NRP-1 and CK2β subunit interaction: By using the PLA technology, the in vitro data showing the implication of CK2β subunit in the phosphorylation of NRP-1 by CK2 are in part confirmed in MDA-MB231 cells by the detection of CK2β interaction with NRP-1 as indicated by the duolink (white dot). […] E. inhibition of the NRP-1/OBR by the simultaneous CK2α and CK2α′ expression silencing using siRNA that confirms the CK2 implication In the NRP-1/OBR complex formation and nuclear localization.
To confirm a direct association of NRP-1 and Leptin in breast cancer cell migration, we investigated the NRP-1 and OBR interaction by using proximity ligation assay technology (Duolink) in MDA-MB-231 and in T47D-NRP-1. Since OBR is a member of the class I cytokine receptor family, we asked the question if the formation of the complex NRP-1/OBR can or not be modulated by Leptin. This question was investigated endogenously in MDA-MB-231 or by transient transfection of T47D either by NRP-1 or by NRP-1/OBR or OBR alone. After 24 h of transfection, cells were serum starved for 16 h then stimulated with Leptin (10 nM). After 3 h, the stimulation was stopped by removing the medium, cells was first washed then fixed and NRP-1/OBR complex formation was analyzed by Duolink in situ Proximity Ligation Assay (PLA) and by confocal microscopy detection. Co-localization was analyzed using JACoP (ImageJ; National Institutes of Health, Bethesda, Md.) software. Co-localization between molecules was indicated by a positive Pearson coefficient (r). First, the expression of NRP-1 in transfected T47D was confirmed by RT-PCR. NRP-1 forms a complex with endogenous OBR as it is shown by the Duolink detection as red dot in cells transfected with pcDNA3-NRP-1. The Duolink signal increased in the T47D co-transfected with NRP-1 and OBR. The Duolink signals in T47D transfected with either the empty vector pcDNA3 or with the OBR expressing vector were similar. The same results are observed in MDA-MB-231. […] By using subcellular protein fractionation kit, NRP-1 and OBR localization in cytoplasmic (C), membrane (M), in the total nuclear extract (N) or in soluble nuclear (SN) and chromatin bound fractions (CB) was analyzed by western blotting either in total lysate or after coimmunoprecipitation. The purity of fraction was assessed by the detection of specific proteins of each fraction such as Hsp90 for the C fraction, SP1 and HDAC2 for the SN and CB fractions and specifically the Calreticulin for endoplasmic reticulum (ER) in order to detect any contamination by the ER membrane fraction in the nuclear fractions. As suspected, OBR was coimmunoprecipitated with NRP-1 in the cytoplasmic (C) and in the nuclear fraction (N) of MDA-MB-231 but not in T47D. As well as Phosphorylated OBR (P-OBR), NRP-1 was detected in cytoplasmic fraction and in nuclear fractions SN and CB of 16 h serum starved MDA-MB-231 and stimulated with 10 nM of Leptin during 3 h at 37° C. The P-OBR and NRP-1 coimmunoprecipitated in the nuclear fractions, increasing with Leptin stimulation as observed by confocal microscopy.
As attempted, NRP-1/OBR complex was detected by confocal microscopy after by Duolink in situ Proximity Ligation Assay (PLA) in MDA-MB-231 stimulated with Leptin (10 nM). This detection was also observed in MDA-MB-231-shGFP but very less in MDA-MB-231-shNRP-1 confirming NRP-1 association with OBR.

The test system of assay [2] is P-NRP-1. The experiment in a line: NRP-1 (P-NRP-1) and OBR phosphorylation in MDA-MB-231, immunostaining / coimmunoprecipitation. The assay is classed as cell-based, human. The settings on record: for NRP-1 and OBR phosphorylation: inhibition of CK2 by chemical compounds. An excerpt: Beside the modulation of the NRP-1/OBR complex formation by Leptin and OBR phosphorylation, we postulated a possible phosphorylation of NRP-1 that can regulate the translocation of the complex to the nucleus. Two putative phosphorylation sites of NRP-1 have been reported with no more investigation. The first one at the extracellular B domain as reported by Shintani et al in 2009 with no antibody available and the second one at the Threonine 916 located in the cytoplasmic domain as it was reported by Kyle et al in 2011. Since a specific antibody against P-NRP-1 at the T916 was available, we investigated by coimmunoprecipitation the detection of P-NRP-1 in MDA-MB-231 after serum starvation and stimulation by Leptin (10 nM). […] To confirm this phosphorylation state, we investigated the possible implication of a Serine/threonine Kinase CK2 using one of its first chemical inhibitor (DRB). In serum starved condition, P-NRP-1 was detected as polarized spot in the cytoplasm and the nucleus of MDA-MB-231. […] The inhibition was specific since, in stimulated condition combined with DMSO at the same dilution of DRB, we were able to observe a diffuse nuclear P-NRP-1 staining.

Assay [3] has as its system OBR and STAT3 phosphorylation. The experiment in a line: OBR and STAT3 phosphorylation in cytoplasmic and nuclear fractions. In kind it is cell-based. An excerpt: Since both NRP-1/OBR complex formation and NRP-1 phosphorylation were abolished by CK2 inhibition, we supposed that OBR signaling pathway could be also affected by CK2 inhibition.
Assay [4] concerns MDA-MB-231 cells. The experiment in a line: MDA-MB-231 cell migration / transmigration through insert. In kind it is cell-based, human. The settings on record: 10 μg/ml of Bevacizumab. An excerpt: (§1) FIG. 5. NRP-1, OBR and leptin interactions confirmation using a Bio-Layer Interferometry (BLI) technology (fortebio.com/bli-technology.html): A-Leptin (OB) interaction to OBR is used as a positive control. Human neuropilin-1 (hNRP-1) interact with human OBR with a high affinity and specifically with human leptin (hOB) but not with murine leptin (mOB). VEGF165 binding to hNRP-1 is used as a positive control. B-Leptin and Avastin association increases MDA-MB231 cells transmigration through […] pore Insert. Avastin treatment may prevent a negative feedback control by VEGF of the pro-angiogenic signaling pathway of Leptin. VEGF binds to OBR which confirms our hypothesis that should be more investigated.
First MBA-MB-231 and T47D breast cancer cells line were selected for their high and undetectable NRP-1 expression respectively and the expression of Leptin receptor (OBR). In order to investigate NRP-1 and Leptin association in breast cancer cell line migration, we proceeded to NRP-1 expression silencing in MDA-MB-231 using either siRNA or shRNA approaches or NRP-1 overexpression in T47D. […] In contrast Leptin induced MDA-MB-231 migration that was decreased in siNRP-1 conditions. The in vitro data were confirmed in vivo by MDA-MB-231 and T47D xenografts in Nude mice. Modulation of NRP-1 expression either by shRNA silencing in MDA-MB-231 or by overexpression in T47D induced an increase of proliferation and a decrease of lymph node infiltration by MDA-MB-231-shNRP-1 and a decrease of proliferation and an increase of lymph node infiltration by T47D-NRP-1-RFP in mice treated with Leptin.
Leptin induced in vitro MDA-MB-231 migration that was decreased by NRP-1 repression using siRNA. Lel Xu et al have reported a direct evidence of NRP-1 up-regulation in tumors treated by anti-VEGF (Bevacizumab). […] This observation can be a first explanation of breast cancer therapy failure (increase of Progression survival while decreasing overall survival) by Bevacizumad and that was revoked by the FDA (Food and Drugs Administration, US).

Assay [5] deals with NRP-1/OBR complex. In words: NRP-1/OBR complex by PLA in skin fibroblast of healthy donor and anorexic patient. In kind it is cell-based, human. The following applies: for NRP-1/OBR complex formation: skin fibroblasts of healthy donor and anorexic patient, treated during 4 hours. As to the method:
FIG. 3A-B. NRP1/OBR complex formation inhibited by two alosteric inhibitors of Protein-kinase CK2 in skin fibroblast of healthy donor (A) and anorexic patient (B). The NRP-1/OBR complex (Red dot) is detected by de Proximity Ligation assay technology (PLA or Ouolink). Cells were grown in DMEM plus 20% of fetal bovine serum+Sodium pyruvate+LGiutamate and penicillin and streptomycin. Cells were treated or not with D3.1 or M4 CK2 inhibitor during 4 hours. Cells were washed with PBS1X and fixed with iced acetone and rehydrated with PBS before blockage and staining with a Goat ant-Human leptin and Rabbit anti-Neuropilin-1 and Mouse anti-Leptin receptor OBR. Leptin was detected using a donkey and Goat Alexa 488 (Green) and NRP-1 and OBR with anti-Rabbit-PLA minus and antimouse-PLA plus as described in the link indicated above. The NRP-1/OBR complex is inhibited by D3.1 and M4 treatment.

The target in assay [6] is Human neuropilin-1 (hNRP-1) (Homo sapiens, UniProt O14786). In words: Bio-Layer Interferometry (BLI) interaction with hNRP-1. The assay is classed as binding.
From the text: as §1
On the technique in general: Biolayer interferometry detects binding as a change in optical thickness at a sensor tip.

“Also recorded” adds a separate entry of the source.

Regarding `O=C(O)c1ccc2c(c1)nc(Nc1cccc(Cl)c1)c1ccncc12` [CX4945], the “NRP-1/OBR complex detection by PLA and its nuclear localization” value in assay [1] (MDA-MB231, CX4945 (504) during 4 h, leptin stimulation (10 nM)) was “decrease in NRP-1/OBR complex detection by PLA (red dot) and its nuclear localization”. For the same molecule, in assay [1], the “formation and nuclear translocation of the NRP-1/OBR complex” value (shortened to “formation and nuclear translocation”) was “prevented; also recorded: the same results obtained with TBB and DRB inhibitors”. Besides, the “NRP-1 and OBR phosphorylation” value in assay [2] is “prevented”.

Take `OC[C@H]1O[C@@H](n2cnc3cc(Cl)c(Cl)cc32)[C@H](O)[C@@H]1O` [DRB, 5,6-dichloro-1-P-D-ribofuranosylbenzimidazole]: the “formation and nuclear translocation” value in assay [1] is “prevented”; in assay [1] (listed as DBB), “decrease of NRP-1/OBR complex formation”. In addition, the “P-NRP-1 staining (diffuse nuclear staining and polarized spot)” value in assay [2] (Leptin-stimulated (10 nM) MDA-MB-231, DRB treatment (5004)) is listed as “inhibition of the diffuse nuclear P-NRP-1 staining but also to the decrease of P-NRP-1 polarized spot”. Also, the “NRP-1 and OBR phosphorylation” value in assay [2] is reported as “prevented”.

As to `Brc1c(Br)c(Br)c2[nH]nnc2c1Br` [TBB, 4,5,6,7-tetrabromobenzotriazole], in assay [1], the “formation and nuclear translocation” value is given as “prevented; also recorded: decrease of NRP-1/OBR complex formation”. In assay [2], the “NRP-1 and OBR phosphorylation” value is listed as “prevented”. Moreover, the “Leptin induced OBR and STAT3 phosphorylation increase, effect of inhibitor” value in assay [3] is on record as “inhibited by TBB treatment in a dose dependent manner”.

On to “Bevacizumab: anti-VEGF antibody (rhuMab VEGF, Avastin) [reference compound]”, for which the MDA-MB-231 migration result in assay [4] is “induced”.

As for `O=[N+]([O-])c1ccc2c(/N=N/c3c(O)ccc4ccccc34)c(O)cc(S(=O)(=O)O)c2c1` [M4, reference compound], in assay [5], the NRP-1/OBR complex formation entry is on record as “inhibited”.

Turning to `O=C(O)c1cccc(Nc2nc(-c3cccc([N+](=O)[O-])c3)cs2)c1` [D3.1], the NRP-1/OBR complex formation entry in assay [5] is listed as “inhibited”. In addition, the “efficiency of NRP-1/OBR complex inhibition, D3.1 compared with M4” value in assay [5] (skin fibroblasts, 4 hours) was “seems more efficient”.

For `CCC(=C/[C@H](C)C/C=C/C(C)=C/[C@@H](C)C(=O)[C@@H](C)[C@H](O)[C@@H](C)C/C(C)=C/C(=O)O)/C=C/[C@@H]1OC(=O)C=C[C@@H]1C` [leptomycin B], the “NRP-1/OBR complex detection by Duolink in the nucleus” value in assay [1] (MDA-MB-231 co-treated with Leptin and leptomycin B vs Leptin alone) is listed as “increased”.

B1: mOB: murine leptin (protein, UniProt P41160 22-167, looked up)
Leptin: VPIQKVQDDTKTLIKTIVTRINDISHTQSVSAKQRVTGLDFIPGLHPILSLSKMDQTLAVYQQVLTSLPSQNVLQIANDLENLRDLLHLLAFSKSCSLPQTSGLQKPESLDGVLEASLYSTEVVALSRLQGSLQDILQQLDVSPEC
Turning to B1, the “interaction with hNRP-1” value in assay [6] is “not”.
